Test results as given in patent EP4603105A1, “PHARMACEUTICAL COMPOSITION CONTAINING CYCLIC COMPOUND HAVING SELECTIVE KRAS INHIBITORY EFFECT AGAINST HRAS AND NRAS” (CHUGAI SEIYAKU KABUSHIKI KAISHA, priority 2022, dated 2024).

Tests used:
[1] = system: human lung cancer strain NCI-H441; format: cell-based
Method in brief: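 Readout: […] after the ATP-based reagent. Compound: serial dilutions in dimethyl sulfoxide.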

[2] = target: GDP-bound NRAS wild-type protein (Homo sapiens, UniProt P01111); assay: Binding to NRAS by surface plasmon resonance (SPR), KD and KD ratio to KRAS
Method in brief: (§1)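 GDP-bound biotin-Avi RAS captured at ~100–300 RU, 30°C, pH 7.4 HBS containing 10 µM GDP, 10 mM MgCl2, 1 mM DTT, 0.01% Tween 20 and 4% DMSO. KD by 1:1 fitting.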

[3] = target: HRAS wild-type protein (Homo sapiens, UniProt P01112); assay: Binding to HRAS by surface plasmon resonance (SPR), KD and KD ratio to KRAS
Method in brief: as §1

[4] = ratio of KD value for GDP-bound NRAS wild-type protein to KD value for KRAS (SPR)
[5] = ratio of KD value for HRAS wild-type protein to KD value for KRAS (SPR)
[6] = ratio of KD for GDP-bound NRAS wild-type protein to KD for KRAS
[7] = ratio of KD for HRAS wild-type protein to KD for KRAS

Chain of HRAS wild-type protein (P01112 whole entry): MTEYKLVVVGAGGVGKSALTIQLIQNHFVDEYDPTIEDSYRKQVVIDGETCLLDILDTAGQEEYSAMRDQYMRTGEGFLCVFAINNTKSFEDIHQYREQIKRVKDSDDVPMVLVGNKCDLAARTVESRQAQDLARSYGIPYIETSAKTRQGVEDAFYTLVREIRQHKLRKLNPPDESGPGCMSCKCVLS
Chain of GDP-bound NRAS wild-type protein (P01111 whole entry): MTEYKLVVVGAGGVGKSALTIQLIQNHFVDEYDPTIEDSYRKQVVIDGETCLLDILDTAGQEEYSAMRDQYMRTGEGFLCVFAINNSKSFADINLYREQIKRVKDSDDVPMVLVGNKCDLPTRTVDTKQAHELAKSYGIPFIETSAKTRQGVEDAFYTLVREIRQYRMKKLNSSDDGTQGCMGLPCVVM

SMILES	IC50 [1] [µM]	NRAS /KRAS [2, 4]	HRAS /KRAS [3, 5]	NRAS /KRAS [2, 6]	HRAS /KRAS [3, 7]
CCO[C@@H]1C[C@H]2C(=O)NC3(CCC3)C(=O)N(C)[C@@H](C3CCCC3)C(=O)N(C)[C@H](C(=O)N(C)CC)CC(=O)N(C)[C@@H](CC3CC3)C(=O)N[C@@H]([C@@H](C)CC)C(=O)N(C)CC(=O)N(C)[C@H]3C/C=C\CCN(C3=O)[C@@H](Cc3ccc(C)cc3)C(=O)N(C)CC(=O)N[C@@H](CCc3ccc(C(F)(F)F)c(OC)c3)C(=O)N2C1 [PP1879]	0.0169	A (a compound having 10 or more and less than 20 is denoted as A)	B (a compound having 3 or more and less than 10 is denoted as B)	–	–
CCO[C@@H]1C[C@H]2C(=O)NC3(CC(C)(C)C3)C(=O)N(C)[C@@H](C3CCCC3)C(=O)N(C)[C@H](C3CCC3)CC(=O)N(C)[C@@H](CC3CC3)C(=O)N[C@@H]([C@@H](C)CC)C(=O)N(C)CC(=O)N(C)[C@H]3C/C=C\CCN(C3=O)[C@@H](Cc3ccc(C(F)(F)F)cc3)C(=O)N(C)CC(=O)N[C@@H](CCc3cc(F)c(C(F)(F)F)c(F)c3)C(=O)N2C1 [PP1635]	0.0363	B (a compound having 3 or more and less than 10 is denoted as B)	A (a compound having 10 or more and less than 20 is denoted as A)	–	–
CCC[C@H]1C(=O)N[C@@H]([C@@H](C)CC)C(=O)N(C)CC(=O)N(C)[C@H]2C/C=C\CCN(C2=O)[C@@H](Cc2ccc(C(F)(F)F)cc2)C(=O)N(C)CC(=O)N[C@@H](CCc2ccc(C(F)(F)F)c(OC)c2)C(=O)N2CCOC[C@H]2C(=O)NC2(CC(C)(C)C2)C(=O)N(C)[C@@H](C(CC)CC)C(=O)N(C)[C@H](C(=O)N(C)C)CC(=O)N1C [PP2935]	0.0505	–	–	A (a compound having 10 or more and less than 20 is denoted as A)	A (a compound having 10 or more and less than 20 is denoted as A)
CCO[C@@H]1C[C@H]2C(=O)NC3(CCC3)C(=O)N(C)[C@@H](C3CCCC3)C(=O)N(C)[C@H](C(=O)N3CCOCC3)CC(=O)N(C)[C@@H](Cc3ccc(F)c(F)c3)C(=O)N[C@@H]([C@@H](C)CC)C(=O)N(C)CC(=O)N(C)[C@H]3CCCCCN(C3=O)[C@@H](Cc3ccc(C(F)(F)F)cc3)C(=O)N(C)CC(=O)N[C@@H](CCc3cc(F)c(C(F)(F)F)c(F)c3)C(=O)N2C1 [PP0928]	0.182	–	–	A (a compound having 10 or more and less than 20 is denoted as A)	B (a compound having 3 or more and less than 10 is denoted as B)
CCO[C@@H]1C[C@H]2C(=O)NC3(CC(C)(C)C3)C(=O)N(C)[C@@H](C3CCCC3)C(=O)N(C)[C@H](C(=O)N(C)C)CC(=O)N(C)[C@@H](C)C(=O)N[C@@H]([C@@H](C)CC)C(=O)N(C)CC(=O)N(C)[C@H]3C/C=C\CCN(C3=O)[C@@H](Cc3ccc(C(F)(F)F)cc3)C(=O)N(C)CC(=O)N[C@@H](CCc3cc(F)c(C(F)(F)F)c(F)c3)C(=O)N2C1 [PP1641]	0.0046	A (a compound having 10 or more and less than 20 is denoted as A)	A (a compound having 10 or more and less than 20 is denoted as A)	–	–
CCC[C@H]1C(=O)N[C@@H]([C@@H](C)CC)C(=O)N2CCC[C@H]2C(=O)N(C)[C@H]2C/C=C\CCN(C2=O)[C@@H](Cc2ccc(C)cc2)C(=O)N(C)CC(=O)N[C@@H](CCc2ccc(C(F)(F)F)c(OC)c2)C(=O)N2C[C@H](OCC)C[C@H]2C(=O)N(C)C2(CCC2)C(=O)N(C)[C@@H](C2CCCC2)C(=O)N(C)[C@H](C(=O)N2CCCCC2)CC(=O)N1C [PP3100]	0.015	–	–	A (a compound having 10 or more and less than 20 is denoted as A)	B (a compound having 3 or more and less than 10 is denoted as B)
CCO[C@@H]1C[C@H]2C(=O)NC3(CCC3)C(=O)N(C)[C@@H](C(CC)CC)C(=O)N(C)[C@H](C)CC(=O)N(C)[C@@H](CC3CCCC3)C(=O)N[C@@H]([C@@H](C)CC)C(=O)N(C)CC(=O)N(C)[C@H]3C/C=C\CCN(C3=O)[C@@H](Cc3ccc(F)cc3C)C(=O)N(C)CC(=O)N[C@@H](CCc3cc(F)c(C(F)(F)F)c(F)c3)C(=O)N2C1 [PP1522]	0.567	A (a compound having 10 or more and less than 20 is denoted as A)	A (a compound having 10 or more and less than 20 is denoted as A)	–	–
